Experimental data reported in patent publication US11278529B2, “Methods for treating aggression associated with Alzheimer's disease” (Ovid Therapeutics Inc., priority 2014, dated 2022).

Tests used:
healthy subjects = settings: cited from earlier work
APP/PS1 HET mice = experiment: Resident-Intruder (RI) test of aggression; format: in vivo
Excerpt: Behavioral aggression is a common symptom associated with Alzheimer's disease. The Resident-Intruder (RI) test is a behavioral test that can assess aggression in male mice. The two output measures are latency to attack and total number of attacks during the test. 40 Male APP/PS1 HET and 10 Male APP/PS1 WT were used as “residents”. Male C57BL/6J mice were used as intruders.
• animal age (>2 vs. >6 months for Fmr1 and APP/PS1) • housing conditions (APP/PS1 were single housed for 3 weeks ahead of testing) • lab, diet, and potentially lighting Many Other Key Variables were the Same: • route and timing of drug admin (i.p injection 30 min ahead of testing) • gender (male only) • genetic background (C57BL/6J) • 10 animals/group
Mice were screened for baseline aggression in the Resident Intruder test. Mice with attack latencies exceeding 150 seconds were excluded from the study. Mice were then balanced by latency to first attack, attack frequency, and body weight.
Gaboxadol (referred to as Test compound A) was tested at 0.5, 1, and 2 mg/kg following IP injection, 30 min pre-treat time. Mice were tested in Resident-Intruder paradigm for 5 minutes test duration.

GABA = settings: cited from earlier work
[1] = test system: subjects under sleep-restriction; settings: 15 mg, cited from earlier work
male C57 mice = experiment: Locomotor activity, male C57 mice; format: in vivo; settings: male C57 mice, 1.25, 2.5 and 5 mg/Kg i.p. 30 min ahead of testing
Procedure: 10 male C57 mice were administered 0.9% NaCl, and gaboxadol: 1.25 mg/Kg, 2.5 mg/Kg and 5 mg/Kg by i.p injection 30 min ahead of testing.

male Balb/Cbyj mice = experiment: Locomotor activity, male Balb/Cbyj mice; format: in vivo; settings: male Balb/Cbyj mice, 1.25, 2.5 and 5 mg/Kg i.p. 30 min ahead of testing
Procedure: 10 male Balb/Cbyj mice were administered 0.9% NaCl, and gaboxadol: 1.25 mg/Kg, 2.5 mg/Kg and 5 mg/Kg by i.p injection 30 min ahead of testing.

Fmr1 knockout mice = settings: in vivo; cited from earlier work
GABA-uptake = settings: cited from earlier work
[2] = test system: healthy young and elderly individuals; settings: in vivo; cited from earlier work
[3] = cited from earlier work
[4] = test system: mouse model of Angelman syndrome; settings: cited from earlier work
predisposed individuals = settings: high peak concentrations; cited from earlier work
cerebellar granule cells = settings: 500 nM; cited from earlier work
[5] = test system: primary insomnia subjects; settings: cited from earlier work
[6] = test system: patients with primary insomnia; settings: cited from earlier work

Oc1noc2c1CCNC2 [gaboxadol, 4,5,6,7-tetrahydroisoxazolo(5,4-c)pyridin-3-ol]
TST increase compared to placebo (healthy subjects; all dosages (5, 10, 15 mg), p<0.001): approximately 30 minutes
WASO reduction compared to placebo (healthy subjects; all dosages (5, 10, 15 mg), p<0.05): 17 to 20 min
subjective measures of sleep quality relative to placebo (healthy subjects; in vivo): improved
heightened aggression (APP/PS1 HET mice; Alzheimer disease model): normalizes heightened aggression
attack frequency (APP/PS1 HET mice; HET mice, 0.5, 1, and 2 mg/kg IP, 30 min pre-treat): significantly attenuated
latency to first attack (APP/PS1 HET mice; HET mice, 0.5, 1, and 2 mg/kg IP, 30 min pre-treat, compared to vehicle): significantly increased
GABA agonist activity (GABA): very potent
mean more SWS compared to placebo ([1]; over four sleep-restriction nights): 21.8 min
stage 4 sleep and SWS compared with the placebo group ([1]; p<0.001): significantly more
stage 1 sleep, REM sleep, and shifts to wake or stage 1 sleep relative to placebo [1]: small but significant reductions
sedation (locomotor activity, total distance traveled) (male C57 mice): not sedating
sedation (locomotor activity, total distance traveled) (male Balb/Cbyj mice): not sedating
hyperactivity (travel and velocity) (Fmr1 knockout mice): reduction or dampening
hypersensitivity to auditory stimuli (Fmr1 knockout mice): reduction
activity as a GABA-uptake inhibitor (GABA-uptake): inactive
NREM sleep, sleep continuity, delta activity within NREM sleep, SWS/SWA [2]: increase
REM sleep [2]: without suppressing
t max ([3]; given orally, healthy subjects): 30 to 60 min
dose excreted in the urine ([3]; mostly unchanged): More than 95%
cerebellar dysfunction in vivo (hind paw abduction) ([4]; 1.25 mg/kg and 2.5 mg/kg): effective to rescue
adverse effects (reduced time on rotarod) ([4]; 1.25 mg/kg): without adverse effects
adverse event (predisposed individuals): hallucinations
excitability of cerebellar granule cells (cerebellar granule cells): reduced
tonic holding currents (cerebellar granule cells): increased
SWS compared with placebo ([5]; 10 mg (p<0.01) and 20 mg (p<0.001)): increase
WASO ([5]; 20 mg, p<0.01): significantly reduced
TST ([5]; 20 mg, p<0.05): significantly increased
NASO ([5]; both doses (10 and 20 mg), p<0.001): significantly reduced
TST ([6]; 5 mg and 15 mg, p<0.05): significantly improved
latency to persistent sleep ([6]; 15 mg, p<0.05): significantly reduced
SWS ([6]; 15 mg): enhance
stage 1, stage 2, or REM sleep ([6]; 15 mg): without significantly affecting
WASO ([6]; statistical significance only with the 5 mg dose): improved
